Measurements taken from paper PMC10946813, “Lipophilicity Modulations by Fluorination Correlate with Membrane Partitioning” (Angewandte Chemie (International Ed. in English), 2023).
Where “and” joins values, the source holds several entries; their conditions need not be identical. Equal values may be shown once. One block for each molecule: values may come before it.

Columns and labels:
[1] = Molar membrane partition coefficient (logKp) by 19F MAS solid-state NMR in lipid vesicles; type: physicochemical; details: for Molar Partition Coefficient (logKP): POPC; for logKp Measured as single compound (3.30 mol%): Table 1; for logKp Measured as single compound (3.30 mol%) / logKp Measured as equimolar mixture: POPC bilayers hydrated at 20 % w/v; for increase in logKp: equimolar mixture of 9 and 10 at 3.3 mol % versus compound alone
Method: The principle of the method is explained in Figure 2 (with a detailed description of the protocol provided in Supporting Information). The method utilizes ^19F MAS NMR to quantitate the partitioning of the fluorinated compounds between the aqueous and membrane phases. […] Experimentally, it was determined that only moderate spinning speeds (10 kHz) and low power decoupling (10 kHz decoupling field) were required to obtain well resolved spectra, even at these high magnetic fields; with motional processes within the liquid crystalline lipid bilayer averaging the potentially large chemical shielding anisotropy and dipolar couplings experienced by the fluorine spins. The application of low spinning speeds and radiofrequency decoupling fields also reduces sample heating, whilst minimising the pelleting of the vesicles against the rotor wall. The absence of any discernable sidebands, resulting from incomplete averaging, simplifies the analysis, as this precludes the need to integrate the entire family of sidebands.
With knowledge of the number of water ( nW ) and lipid ( nM ) molecules, the molar partition coefficient ( KP) is readily determined.
To determine how the concentration of the compound and bilayer hydration influenced the measured logK P, a systematic study of these parameters was undertaken for compound 10 (Figure S2, Table S1). Samples were prepared where the lipids were hydrated at levels between 10 to 30 %(w/v), a range widely used to study the physical properties of lipid bilayers. […] On the basis of the reproducibility of these figures, all subsequent experiments were conducted at 20 % (w/v) hydration with a compound/lipid ratio of 0.033. In addition to providing excellent reproducibility, these concentrations afforded good signal to noise ratios with sensible spectral acquisition times. […]
(§1) to the r.f. field strength then care should be taken to ensure that the two compounds are similarly excitated. Quantitative data also requires the complete relaxation of the nuclei between scans. For the studies reported here, saturation recovery measurements were performed on each system, with spectra then acquired with a recycle delay of five times T1. It […]
(§2) shorter T1 values than that of the substrate in aqueous solution, mirroring the observation […]
(§3) In addition to more general NMR considerations, care must also be exercised to ensure that the signal intensity, particularly that of the membrane bound state, is not influenced by anisotropic interactions that may be present. Due to the molecular dynamics within the lipid bilayer, many of these interactions are already motionally averaged facilitating their removal.
(§4) The application of low-power (10 kHz) SPINAL-64 decoupling[2] is sufficient to remove the weak scalar and dipolar couplings that are present within the fluid lipid bilayer. Care was taken […]
(§5) linebroadening due to temperature dependent changes in chemical shift. Similarly, data was acquired with both 5 and 10 kHz MAS and no change in isotropic chemical shift was observed […]
(§6) However, increasing the spinning speed from 5 to 10 kHz ensured complete averaging the residual chemical shielding anisotropy and other anisotropic contrbutions to the spectra and the presence of a single isotropic resonance for each population. The absence of any discernable sidebands in spectra acquired at 10 kHz allows the accurate integration of the signal intensity without the need to integrate the entire family of sidebands which would be required for a quantitative analysis.
(§7) Care should be taken when extending this to other compounds where the anisotropy may larger, either due to a larger chemical shielding anisotropy at the fluorine site studied or the application of higher magnetic as this would complicate the signal integration.
Prior to Fourier Transform, data was processed with 1Hz exponential line broadening and zero filled with 16384 points. The resulting spectra was phased and base line corrected. All processing was performed in Matlab using matNMR[5]. […]

[2] = Octanol-water partition coefficient (logP OW), 19F NMR method with reference compound
[3] = Molar membrane partition coefficient (logKp) by 19F MAS NMR in POPC/cholesterol bilayers; type: physicochemical; details: for Molar Partition Coefficient (logKP): Table S3, POPC, 20% (w/v), substrate 3.3 mol%; for fall in logKP: increasing cholesterol up to 50 mol % versus pure POPC membranes
Source text: A major advantage of the method presented here compared to logP determination is that it can be applied to membranes of arbitrary complexity, enabling the analysis of the influence of such properties as headgroup size/charge and chain length/saturation. […] As an example of this kind of investigation, a mixed lipid system was employed. In particular, we investigated how increasing concentrations of cholesterol, a commonly found sterol in eukaryotic cell membranes, influenced the membrane partitioning of 9 and 10 (Figure 5, Table S3). […] The fall in logK P mirrors earlier studies where a reduction in membrane partitioning for small molecules has been observed.[19] This reduction has been attributed to the […] of the acyl chain packing and their favourable interactions with the cholesterol.[20] […]
as §1, §2, §3, §4, §5, §6, §7
Prior to Fourier Transform, data was processed with 1Hz exponential line broadening and zero filled with 16384 points. The resulting spectra was phased and base line corrected. All processing was performed in Matlab using matNMR[5]. The subsequent resonances where fitted to Lorentzian peaks using custom scripts in Matlab which are available from the authors.
1.4 Calculation of the molar membrane partition coefficients
In the slow exchange limit the molar partition coefficient can then be calculated as:
K = n",$/n$ = C",$/’(’)*.n% = I",$ . n%
Where C",+ and C",$ are the concentrations of the substrate in the membrane and aqueous phases respectively and n", n$ and n% are the number of substrate, lipid and water molecules respectively. The ratio C",$/’(’)*/C",%/’(’)* can be determined directly from the ratio of the integrals from the signals arising from the lipidic and aqueous phases (See Figure 2, main paper), whilst the ratio of n%/n$ represents the ratio of water to lipid molecules in the membrane, the degree of hydration.
2 Influence of exchange between the membrane and aqueous phase on 19F MAS-NMR Lineshape (Figure S1)
The influence of chemical exchange is well characterised in the liquid state, however […]

[4] = Table S2, glycosides, first listed 19F resonance
[5] = Table S2, glycosides, second listed 19F resonance
[6] = individual experiment (octanol/water), one of triplicate
[7] = octanol/water, Average logP, triplicate
[8] = octanol/water, Error (mean logP with standard deviation), triplicate, three decimals
[9] = Table S2, one 19F resonance evaluated

Molar Partition Coefficient (logKP) [1, 4]: 1.80 ± 0.05 | Molar Partition Coefficient (logKP) [1, 5]: 1.87 ± 0.14 | logP [2, 6]: -0.905 and -0.898 | logP [2, 7]: -0.9 | logP [2, 8]: -0.902
SMILES: CO[C@H]1O[C@H](CF)[C@H](F)[C@H](O)[C@H]1O [compound 7, methyl 4,6-dideoxy-4,6-difluoro-α-D-galactopyranoside]

logKp Measured as single compound (3.30 mol%) [1]: 2.40±0.07 | Molar Partition Coefficient (logKP) [1, 9]: 2.40 ± 0.07 | logKp Measured as equimolar mixture ([1]; mixture 10+13, 3.30 mol% each): 2.50±0.10
SMILES: OCC(F)(F)CC(F)(F)CO [compound 13]

Molar Partition Coefficient (logKP) [1, 4]: 1.93 ± 0.16 | Molar Partition Coefficient (logKP) [1, 5]: 1.95 ± 0.15 | logP [2, 6]: -1.036 and -1.054 and -1.053 | logP [2, 7]: -1.05 | logP [2, 8]: -1.05
SMILES: CO[C@@H]1O[C@H](CF)[C@@H](F)[C@H](O)[C@H]1O [compound 6]

Molar Partition Coefficient (logKP) [1, 4]: 1.98 ± 0.02 | Molar Partition Coefficient (logKP) [1, 5]: 1.98 ± 0.03 | logP [2, 6]: -0.698 and -0.708 and -0.717 | logP [2, 7]: -0.71 | logP [2, 8]: -0.707
SMILES: CO[C@H]1O[C@H](CF)[C@@H](F)[C@H](O)[C@H]1O [compound 5]

Molar Partition Coefficient (logKP) [1, 9]: 1.68 ± 0.08
SMILES: OCCC(F)CCO [compound 11]

Molar Partition Coefficient (logKP) [1, 9]: 2.54 ± 0.08
SMILES: OCC1CC1(F)F (stereo not drawn) [compound 1]

Molar Partition Coefficient (logKP) [1, 9]: 2.01 ± 0.01
SMILES: OCC(F)CC(F)(F)CO (stereo not drawn) [compound 14]

Molar Partition Coefficient (logKP) [1, 9]: 2.02 ± 0.04
SMILES: OC[C@@H]1C[C@@H]1F [compound 4]

Molar Partition Coefficient (logKP) [1, 9]: 2.17 ± 0.05
SMILES: OC[C@H]1C[C@@H]1F [compound 2]

The next lines start with the molecule.

SMILES: OC[C@@H](F)C[C@H](F)CO [compound 15]
Molar Partition Coefficient (logKP) [1, 9]: 1.85 ± 0.10

SMILES: OC[C@H](F)C[C@@H](F)CO (single isomer, unassigned) [ent-15]
Molar Partition Coefficient (logKP) [1, 9]: 1.82 ± 0.06

SMILES: OCCC(F)(F)CCO [compound 10]
Molar Partition Coefficient (logKP) ([3]; membrane cholesterol 25 mol %): 1.74 ± 0.02 | Molar Partition Coefficient (logKP) ([3]; membrane cholesterol 50 mol %): 1.68 ± 0.05 | fall in logKP [3]: 0.17 | logKp Measured as single compound (3.30 mol%) [1]: 1.83±0.04 and 1.83±0.11 | logKP ([1]; Table S1, hydration 10 % w/v, substrate/lipid 0.010 mole/mole): 1.73 | logKP ([1]; Table S1, hydration 10 % w/v, substrate/lipid 0.033 mole/mole): 1.91 | logKP ([1]; Table S1, hydration 10 % w/v, substrate/lipid 0.100 mole/mole): 1.81 | logKP ([1]; Table S1, hydration 20 % w/v, substrate/lipid 0.010 mole/mole): 1.97 | logKP ([1]; Table S1, hydration 20 % w/v, substrate/lipid 0.033 mole/mole, mean value (n=3)): 1.83 | logKP ([1]; Table S1, hydration 20 % w/v, substrate/lipid 0.100 mole/mole): 1.95 | logKP ([1]; Table S1, hydration 30 % w/v, substrate/lipid 0.010 mole/mole): 1.81 | logKP ([1]; Table S1, hydration 30 % w/v, substrate/lipid 0.033 mole/mole): 1.69 | logKP ([1]; Table S1, hydration 30 % w/v, substrate/lipid 0.100 mole/mole): 1.85 | logKP, Mean ([1]; Table S1, mean over all hydrations (10-30 % w/v) and substrate/lipid ratios (0.010-0.100)): 1.85 | Molar Partition Coefficient (logKP) [1, 9]: 1.83 ± 0.04 | mean logKP ([1]; compound concentration 1 to 10 mol % (with respect to total lipid), mean across all levels of hydration): 1.85±0.02 | increase in logKp [1]: 0.2 units | mean logKP ([1]; lipids hydrated at 10 to 30 %(w/v), mean across the range of compound concentrations studied): 1.85±0.06 | logKp Measured as equimolar mixture ([1]; mixture 9+10, 1.65 mol% each): 1.84±0.01 | logKp Measured as equimolar mixture ([1]; mixture 9+10, 3.30 mol% each): 2.01±0.04 | logKp Measured as equimolar mixture ([1]; mixture 10+13, 3.30 mol% each): 1.88±0.11 | Kp at 0.01 mole/mole substrate/lipid ([1]; multilamellar POPC vesicles, Table S1, hydration 10 % w/v, substrate/lipid 0.010 mole/mole): 53.4 | Kp at 0.033 mole/mole substrate/lipid ([1]; multilamellar POPC vesicles, Table S1, hydration 10 % w/v, substrate/lipid 0.033 mole/mole): 81.8 | Kp at 0.1 mole/mole substrate/lipid ([1]; multilamellar POPC vesicles, Table S1, hydration 10 % w/v, substrate/lipid 0.100 mole/mole): 64.5 | Kp at 0.01 mole/mole substrate/lipid ([1]; multilamellar POPC vesicles, Table S1, hydration 20 % w/v, substrate/lipid 0.010 mole/mole): 93.9 | Kp at 0.033 mole/mole substrate/lipid ([1]; multilamellar POPC vesicles, Table S1, hydration 20 % w/v, substrate/lipid 0.033 mole/mole): 67.6 | Kp at 0.1 mole/mole substrate/lipid ([1]; multilamellar POPC vesicles, Table S1, hydration 20 % w/v, substrate/lipid 0.100 mole/mole): 89.4 | Kp at 0.01 mole/mole substrate/lipid ([1]; multilamellar POPC vesicles, Table S1, hydration 30 % w/v, substrate/lipid 0.010 mole/mole): 65.3 | Kp at 0.033 mole/mole substrate/lipid ([1]; multilamellar POPC vesicles, Table S1, hydration 30 % w/v, substrate/lipid 0.033 mole/mole): 49.2 | Kp at 0.1 mole/mole substrate/lipid ([1]; multilamellar POPC vesicles, Table S1, hydration 30 % w/v, substrate/lipid 0.100 mole/mole): 70.7 | Kp ([1]; multilamellar POPC vesicles, Table S1, mean over all hydrations (10-30 % w/v) and substrate/lipid ratios (0.010-0.100)): 71.6

SMILES: OC[C@@H](F)C[C@@H](F)CO [compound 16]
Molar Partition Coefficient (logKP) [1, 9]: 1.71 ± 0.10

SMILES: OCCCC(F)(F)CO [compound 9]
Molar Partition Coefficient (logKP) ([3]; membrane cholesterol 25 mol %): 1.87 ± 0.03 | Molar Partition Coefficient (logKP) ([3]; membrane cholesterol 50 mol %): 1.77 ± 0.02 | fall in logKP [3]: 0.24 | logKp Measured as single compound (3.30 mol%) [1]: 2.01±0.02 | Molar Partition Coefficient (logKP) [1, 9]: 2.01 ± 0.02 | Molar Partition Coefficient (logKP) ([1]; Table S3, membrane cholesterol 0 mol %, 20% (w/v), substrate 3.3 mol%): 2.01 ± 0.02 | increase in logKp [1]: 0.2 units | logKp Measured as equimolar mixture ([1]; mixture 9+10, 1.65 mol% each): 1.99±0.09 | logKp Measured as equimolar mixture ([1]; mixture 9+10, 3.30 mol% each): 2.18±0.07

SMILES: CO[C@@H]1O[C@H](CF)[C@H](F)[C@H](O)[C@H]1O [compound 8, methyl 4,6-dideoxy-4,6-difluoro-β-D-galactopyranoside]
Molar Partition Coefficient (logKP) [1, 4]: 1.69 ± 0.00 | Molar Partition Coefficient (logKP) [1, 5]: 1.64 ± 0.06 | logP [2, 6]: -1.257 and -1.242 and -1.253 | logP [2, 7]: -1.25 | logP [2, 8]: -1.25

SMILES: OCC1(F)CC1 [compound 3]
Molar Partition Coefficient (logKP) [1, 9]: 2.08 ± 0.01
